Tests used:
morphine CPP [1] = assay: Induction of morphine conditioned place preference (CPP); inhibitor given after conditioning; assay type: in vivo, Long Evans rats; conditions: for CPP score (time spent in drug associated-chamber), mean±SEM: single s.c. dose at end of four-day conditioning, anisomycin and cycloheximide groups combined; for effect on morphine CPP: single s.c. dose at the end of four-day conditioning, tested at 24 hours
Method: . CPP was tested after 24 hours. To determine whether the effect was stable, the animals were retested 1 week later.
(§1) Because both anisomycin and cycloheximide produced a similar effect, the CPP score of the two groups were combined. […] Further experimentation was needed to determine whether a more extended inhibition of protein synthesis was able to persistently block CPP. Groups of rats were treated as above but received two injections of cycloheximide, one immediately after the last conditioning session and the second 5 hours later. In parallel, the rates of protein synthesis inhibition, over time, following a single or double injection were established. […] With a double injection, 5 hours apart, the rate of protein synthesis inhibition at 6 hours was maintained at 71%. The results after two injections were similar to those after a single injection; in fact, the CPP of rats that received two injection of cycloheximide was inhibited at 24 hours, but recovered a week later (data not shown).
Experimentation was needed to test the possibility that blocking protein synthesis after each daily conditioning produced a stable loss of CPP. Groups of rats received an injection of either cycloheximide or vehicle every day at the end of each conditioning trial and were then tested 24 hours, 1 week and 4 weeks later. […] This inhibition persisted at 1 week (254.8±32.8 sec and 429.4±33.1 sec, respectively, p<0.01) and 4 weeks (243.3±21.8 sec and 416.8±31.4 sec, respectively, p<0.01) post-conditioning (FIG. 1B).
(§2) Adult Long Evans rats (200-250 grams) were used for all the experiments. On day 1, the rats received a single pre-exposure test in a box composed of two distinct compartments (Pre-conditioning). The time spent in each chamber over 10 minutes was recorded (unconditioned preference) and then the animals were returned to their homecages. Animals showing a strong unconditioned preference (>540 s) were discarded. On the subsequent 4 days, place preference conditioning was conducted using an unbiased procedure. In each experimental group, the animals received a subcutaneous injection of either morphine (10 mg/kg) or saline (vehicle solution). Half of both groups were confined for 30 minutes in the spontaneously preferred compartment and the other half in the non-preferred compartment. Testing consisted of allowing the animals free access to both chambers for 10 minutes and recording the amount of time that the animals spend in the conditioned chamber (CPP score). All protocols complied with the N.I.H. Guide for the Care and Use of Laboratory Animals and were approved by the Mount Sinai School of Medicine Animal care Committees.
(§3) Anisomycin and Cycloheximide were injected s.c. at 210 mg/Kg (Milekic and Alberini, 2002) and 2.8 mg/Kg (Squire et al., 1980), respectively. Anisomycin was dissolved as previously described (Milekic and Alberini, 2002). Cycloheximide was dissolved in DMSO and finally diluted in 1% DMSO/saline. Vehicle solutions were prepared accordingly.

morphine CPP [2] = assay: Maintenance of morphine CPP after contextual reactivation (Test 1); inhibitor given after recall; assay type: in vivo, Long Evans rats; conditions: for CPP score, mean±SEM: injection immediately after Test 1 (1 week after conditioning), Test 2, 24 hours later, cycloheximide and anisomycin scores combined; for change in CPP score: injection immediately after Test 1, re-tested 24 hours later (Test 2)
Method: The purpose of second set of experiments was to determine whether morphine CPP becomes labile if recalled. Groups of rats were conditioned to morphine for 4 days. […] This test recalled the experience (Test 1), or, in other words, reactivated CPP. Immediately after Test 1, half of the rats received an injection of cycloheximide or anisomycin and half were injected with vehicle. The animals were re-tested 24 hours later (Test 2). […] (Test1-vehicle: 394.4±42.6 sec; Test1-inhibitor: 387.8±25.8 sec; Test2-vehicle 413.3±35.9 sec; Test2-inhibitor 425.9±25.3 sec) (FIG. 2). Because both cycloheximide and anisomycin-treated rats performed similarly, their scores were combined.
as §2, §3

morphine CPP [3] = assay: Consolidated morphine CPP after a single reconditioning session; inhibitor given after reconditioning; assay type: in vivo, Long Evans rats
Description: However, it is important to consider that during morphine CPP, the drug may serve as an internal reinforcer and the animal experiences a strong reward. It remained unknown whether CPP may become labile if the rewarding state of the drug experience is concomitantly reactivated with the contextual cues (reconditioning). Therefore, it was examined whether a previously formed CPP becomes labile after a reconditioning session. Rats were conditioned to morphine for 4 days and, 1 week later, were exposed to another, single conditioning session. Immediately after this session, half of the animals received an injection of inhibitor (cycloheximide or anisomycin) and the other half of vehicle solution and were then all retested 24 hours and 1 week later.
It was then tested whether blocking protein synthesis after reconditioning for a longer time would result in a stable disruption of CPP. Groups of rats were treated as above but received two injections of cycloheximide, one immediately after reconditioning and the second 5 hours later, a protocol that, as described in the first set of experiments, block 70% of protein synthesis for several hours.
as §2, §3

morphine CPP [4] = assay: Morphine CPP, conditioning context omitted (injections in homecage); assay type: in vivo, Long Evans rats
Method: (3C) The conditioning context was omitted and rats (n=8) were injected in their home cage with morphine and 30 min later with cycloheximide at the same time point as in (3A) and (3B). CPP was tested 24 hr after injection (post-injection).
(3D) Rats were injected only with cycloheximide (n=9) in the home cage at the same time points as in (3A) and (3B) without receiving either morphine or exposure to the conditioning context. CPP was tested 24 hr after the last injection (post-injection).
To investigate whether the blocking effect of the inhibitors on CPP was context-specific, the conditioning context was omitted, that is morphine and cycloheximide were administered in the homecages at the same times after conditioning.
as §2
Anisomycin and Cycloheximide were injected s.c. at 210 mg/Kg (Milekic and Alberini, 2002) and 2.8 mg/Kg (Squire et al., 1980), respectively. Anisomycin was dissolved as previously described (Milekic and Alberini, 2002). […]

protein synthesis = assay: Inhibition of protein synthesis in brain (L-[35S]methionine incorporation); assay type: in vivo, rats
Method: as §1
Inhibition of protein synthesis was assessed according to Rosenblum et al. (1993) with modifications. Rats were injected with 125 μCi L-[^35S]methionine (i.p.) and immediately after received an injection of either protein synthesis inhibitors, (cycloheximide or anisomycin) or vehicle solution. The rats were sacrificed one hour after the last inhibitor injection. The brains were homogenized in 5 volumes of cold lysis buffer (1% SDS, 60 mM Tris.Cl pH 7.4, 62.4 mM imidazole, 40 mM DTT, 10% glycerol). The homogenates were boiled for 5 min and centrifuged at 18,000 g for 20 min at room temperature. Equal amount of proteins were precipitated with 20% TCA and the radioactivity was counted. The inhibition of protein synthesis was calculated as: [1−(CPMinhibitor/CPMvehicle)]×100.

[5] = single injection immediately after reconditioning, 1 week later, cycloheximide or anisomycin combined
[6] = single injection immediately after reconditioning, 24 hours after reconditioning, cycloheximide or anisomycin combined
[7] = injection every day at the end of each conditioning trial, 24 hours after conditioning

## COc1ccc(C[C@H]2NC[C@H](O)[C@H]2OC(C)=O)cc1 [anisomycin]
Morphine CPP [1]; 24 hours
  CPP score (time spent in drug associated-chamber), mean±SEM: 280.1 ± 17.5 s
Morphine CPP [1]; re-tested 1 week later
  CPP score (time spent in drug associated-chamber), mean±SEM: 358.9 ± 28.0 s
Morphine CPP [1]
  effect on morphine CPP: completely blocked
Morphine CPP [2]
  CPP score, mean±SEM: 425.9 ± 25.3 s
  change in CPP score: No change
Morphine CPP [3]; [5]
  CPP score, mean±SEM: 365.4 ± 45.1 s
Morphine CPP [3]; [6]
  CPP score, mean±SEM: 261.5 ± 33.9 s

## C[C@@H]1C[C@@H]([C@H](O)CC2CC(=O)NC(=O)C2)C(=O)[C@@H](C)C1 [cycloheximide]
Morphine CPP [1]; injection every day at the end of each conditioning trial, 1 week post-conditioning
  CPP score, mean±SEM: 254.8 ± 32.8 s
Morphine CPP [1]; injection every day at the end of each conditioning trial, 4 weeks post-conditioning
  CPP score, mean±SEM: 243.3 ± 21.8 s
Morphine CPP [1]; [7]
  CPP score, mean±SEM: 226.6 ± 47.2 s
  effect on CPP: complete inhibition
Morphine CPP [1]; 24 hours
  CPP score (time spent in drug associated-chamber), mean±SEM: 280.1 ± 17.5 s
Morphine CPP [1]; re-tested 1 week later
  CPP score (time spent in drug associated-chamber), mean±SEM: 358.9 ± 28.0 s
Morphine CPP [1]
  effect on morphine CPP: completely blocked
Morphine CPP [1]; two injections (immediately after last conditioning session and 5 hours later), a week later, data not shown
  effect on CPP: recovered
Morphine CPP [1]; two injections (immediately after last conditioning session and 5 hours later), at 24 hours, data not shown
  effect on CPP: inhibited
Morphine CPP [2]
  CPP score, mean±SEM: 425.9 ± 25.3 s
  change in CPP score: No change
Morphine CPP [3]; double injection (immediately after reconditioning and 5 hours later), 24 hours
  CPP score, mean±SEM: 264.1 ± 13.3 s
Morphine CPP [3]; double injection after reconditioning, 1 week
  CPP score, mean±SEM: 239.9 ± 34.4 s
Morphine CPP [3]; double injection after reconditioning, 2 weeks
  CPP score, mean±SEM: 270.1 ± 27.2 s
Morphine CPP [3]; double injection after reconditioning, 4 weeks
  CPP score, mean±SEM: 278.4 ± 32.5 s
Morphine CPP [3]; double injection after reconditioning, tested 24 hours to 4 weeks
  effect on CPP: completely and persistently blocked
Morphine CPP [3]; [5]
  CPP score, mean±SEM: 365.4 ± 45.1 s
Morphine CPP [3]; [6]
  CPP score, mean±SEM: 261.5 ± 33.9 s
Morphine CPP [4]; morphine and cycloheximide administered in the homecages, conditioning context omitted
  effect on CPP: No blocking effect
Morphine CPP [4]; morphine and cycloheximide administered in the homecages, conditioning context omitted, post-conditioning (24 hr after injection)
  CPP score, mean±SEM: 362.22 ± 17.4 s
Morphine CPP [4]; only the inhibitor in the homecage, morphine and context omitted, post-conditioning (24 hr after last injection)
  CPP score, mean±SEM: 399.8 ± 31.6 s
Protein synthesis; double injection, 5 hours apart, at 6 hours
  inhibition of protein synthesis: 71%
Protein synthesis; single injection, at 1 hour
  inhibition of protein synthesis: 70%
Protein synthesis; single injection, at 6 hours after injection
  inhibition of protein synthesis: 23%
Protein synthesis; two injections, 5 hours apart, for several hours
  protein synthesis blocked: 70%

Source: patent US20060116392A1, “Methods for treating anxiety disorders and related article of manufacture” (priority 2004, published 2006)
